Laboratory results as given in ChEMBL document CHEMBL4118189, “Discovery of novel N-hydroxy-2-arylisoindoline-4-carboxamides as potent and selective inhibitors of HDAC11” (Bioorg Med Chem Lett, 2018).
Values after ≈ are worked out from the molar mass of the structure shown.

How the values were obtained:
Histone deacetylase 11 [1] = molecular target: T1, Histone deacetylase 11 (Homo sapiens, UniProt Q96DB2); experiment: Inhibition of full length recombinant human HDAC11 expressed in baculoviral expression system using FAM-RHKK as substrate by electrophoretic mobility shift assay
T1 sequence (Q96DB2 whole entry): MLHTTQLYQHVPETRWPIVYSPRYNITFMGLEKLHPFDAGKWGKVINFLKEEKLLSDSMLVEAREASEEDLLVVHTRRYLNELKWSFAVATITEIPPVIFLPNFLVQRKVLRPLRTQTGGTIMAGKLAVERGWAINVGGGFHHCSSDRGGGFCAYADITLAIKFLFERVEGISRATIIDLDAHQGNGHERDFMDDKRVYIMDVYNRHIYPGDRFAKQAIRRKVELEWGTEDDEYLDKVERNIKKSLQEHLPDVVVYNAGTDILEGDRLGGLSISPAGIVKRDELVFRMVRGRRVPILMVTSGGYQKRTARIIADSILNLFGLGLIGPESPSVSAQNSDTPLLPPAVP

[2] = Intrinsic clearance in mouse liver microsomes; format: ADME, microsome; settings: read-out: CLH
[3] = Clearance in Balb/c nude mouse at 1 mg/kg, iv; format: ADME, organism-based; settings: in vivo
[4] = Half life in Balb/c nude mouse at 1 mg/kg, iv; format: ADME, organism-based; settings: in vivo
[5] = molecular target: T2, Protein deacetylase HDAC6 (Homo sapiens, UniProt Q9UBN7); experiment: Inhibition of full length recombinant human HDAC6 using fluorescent-labeled peptide as substrate by electrophoretic mobility shift assay
T2 sequence (Q9UBN7 whole entry): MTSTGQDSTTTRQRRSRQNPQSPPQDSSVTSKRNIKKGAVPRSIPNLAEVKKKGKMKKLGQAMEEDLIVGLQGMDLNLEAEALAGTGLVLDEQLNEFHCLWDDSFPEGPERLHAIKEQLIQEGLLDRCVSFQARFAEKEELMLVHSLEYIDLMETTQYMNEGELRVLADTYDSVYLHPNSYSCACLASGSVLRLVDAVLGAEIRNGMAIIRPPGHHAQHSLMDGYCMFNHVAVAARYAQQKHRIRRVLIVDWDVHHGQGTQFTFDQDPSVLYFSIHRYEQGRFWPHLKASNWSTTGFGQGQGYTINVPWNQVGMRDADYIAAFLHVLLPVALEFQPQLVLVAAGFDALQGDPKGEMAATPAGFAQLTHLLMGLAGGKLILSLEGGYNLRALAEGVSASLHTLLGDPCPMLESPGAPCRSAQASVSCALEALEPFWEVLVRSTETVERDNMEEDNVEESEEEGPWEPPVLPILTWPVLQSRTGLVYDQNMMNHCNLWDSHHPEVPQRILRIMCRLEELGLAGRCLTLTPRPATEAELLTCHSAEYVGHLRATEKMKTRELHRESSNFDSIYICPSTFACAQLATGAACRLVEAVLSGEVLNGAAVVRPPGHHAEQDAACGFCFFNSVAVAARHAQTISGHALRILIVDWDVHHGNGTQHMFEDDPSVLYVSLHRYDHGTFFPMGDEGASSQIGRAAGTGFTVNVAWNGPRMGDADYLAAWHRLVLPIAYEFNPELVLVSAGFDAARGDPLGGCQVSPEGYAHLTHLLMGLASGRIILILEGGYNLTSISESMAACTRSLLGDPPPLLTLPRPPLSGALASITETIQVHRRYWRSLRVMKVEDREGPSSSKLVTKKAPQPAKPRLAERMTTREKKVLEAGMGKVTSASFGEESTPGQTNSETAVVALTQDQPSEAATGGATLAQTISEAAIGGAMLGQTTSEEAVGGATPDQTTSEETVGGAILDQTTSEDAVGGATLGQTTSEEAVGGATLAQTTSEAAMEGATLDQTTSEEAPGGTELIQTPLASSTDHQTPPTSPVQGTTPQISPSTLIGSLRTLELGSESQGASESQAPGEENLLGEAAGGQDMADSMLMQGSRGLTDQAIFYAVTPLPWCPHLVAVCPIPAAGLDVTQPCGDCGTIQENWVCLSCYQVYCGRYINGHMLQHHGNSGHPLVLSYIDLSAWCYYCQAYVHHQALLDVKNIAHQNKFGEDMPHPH

[6] = Initial plasma concentration in Balb/c nude mouse at 1 mg/kg, iv; format: ADME, organism-based
[7] = AUClast in Balb/c nude mouse at 1 mg/kg, iv; format: ADME, organism-based; set-up: dose 1 mg/kg, time 0 - last, route intravenous; settings: in vivo
[8] = Volume of distribution at steady state in Balb/c nude mouse at 1 mg/kg, iv; format: ADME, organism-based; settings: in vivo, read-out: Vdss
[9] = Half life in Balb/c nude mouse at 5 mg/kg, ip; format: ADME, organism-based; settings: in vivo
[10] = Bioavailability in Balb/c nude mouse at 5 mg/kg, ip; format: ADME, organism-based; settings: in vivo
[11] = Cmax in Balb/c nude mouse at 5 mg/kg, ip; format: ADME, organism-based; set-up: dose 5 mg/kg, route intraperitoneal; settings: in vivo
[12] = AUClast in Balb/c nude mouse at 5 mg/kg, ip; format: ADME, organism-based; set-up: dose 5 mg/kg, time 0 - last, route intraperitoneal; settings: in vivo
[13] = Kinetic solubility of the compound at pH 7.4; format: physicochemical; settings: buffer, read-out: Kinetic_solubility
Histone deacetylase 11 [14] = molecular target: T1, Histone deacetylase 11; experiment: Inhibition of NanoLuc-tagged HDAC11 (unknown origin) by BRET assay
[15] = Permeability of the compound by PAMPA; format: ADME; settings: read-out: permeability
[16] = molecular target: T3, Polyamine deacetylase HDAC10 (Homo sapiens, UniProt Q969S8); experiment: Inhibition of full length recombinant human HDAC10 using fluorescent-labeled peptide as substrate by electrophoretic mobility shift assay
T3 sequence (Q969S8 whole entry): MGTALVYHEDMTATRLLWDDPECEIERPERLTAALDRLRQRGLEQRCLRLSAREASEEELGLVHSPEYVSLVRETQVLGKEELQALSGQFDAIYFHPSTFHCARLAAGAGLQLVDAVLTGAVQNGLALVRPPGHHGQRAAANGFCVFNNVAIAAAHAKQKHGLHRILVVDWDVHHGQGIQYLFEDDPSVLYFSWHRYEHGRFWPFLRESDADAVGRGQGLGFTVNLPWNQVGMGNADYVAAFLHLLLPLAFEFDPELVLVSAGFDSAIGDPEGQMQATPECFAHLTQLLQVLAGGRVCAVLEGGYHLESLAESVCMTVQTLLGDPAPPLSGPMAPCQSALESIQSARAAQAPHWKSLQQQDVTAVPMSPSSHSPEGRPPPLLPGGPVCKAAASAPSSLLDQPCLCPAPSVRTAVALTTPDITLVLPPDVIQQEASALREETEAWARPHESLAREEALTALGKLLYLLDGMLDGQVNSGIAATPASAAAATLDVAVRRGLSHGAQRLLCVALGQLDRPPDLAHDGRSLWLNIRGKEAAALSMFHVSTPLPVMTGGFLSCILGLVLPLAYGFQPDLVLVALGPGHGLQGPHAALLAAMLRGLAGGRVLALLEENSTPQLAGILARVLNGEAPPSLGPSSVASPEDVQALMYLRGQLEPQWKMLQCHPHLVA

Histone deacetylase 7 = molecular target: T4, Histone deacetylase 7 (Homo sapiens, UniProt Q8WUI4); experiment: Inhibition of full length recombinant human HDAC7 using fluorescent-labeled peptide as substrate by electrophoretic mobility shift assay
T4 sequence (Q8WUI4 whole entry): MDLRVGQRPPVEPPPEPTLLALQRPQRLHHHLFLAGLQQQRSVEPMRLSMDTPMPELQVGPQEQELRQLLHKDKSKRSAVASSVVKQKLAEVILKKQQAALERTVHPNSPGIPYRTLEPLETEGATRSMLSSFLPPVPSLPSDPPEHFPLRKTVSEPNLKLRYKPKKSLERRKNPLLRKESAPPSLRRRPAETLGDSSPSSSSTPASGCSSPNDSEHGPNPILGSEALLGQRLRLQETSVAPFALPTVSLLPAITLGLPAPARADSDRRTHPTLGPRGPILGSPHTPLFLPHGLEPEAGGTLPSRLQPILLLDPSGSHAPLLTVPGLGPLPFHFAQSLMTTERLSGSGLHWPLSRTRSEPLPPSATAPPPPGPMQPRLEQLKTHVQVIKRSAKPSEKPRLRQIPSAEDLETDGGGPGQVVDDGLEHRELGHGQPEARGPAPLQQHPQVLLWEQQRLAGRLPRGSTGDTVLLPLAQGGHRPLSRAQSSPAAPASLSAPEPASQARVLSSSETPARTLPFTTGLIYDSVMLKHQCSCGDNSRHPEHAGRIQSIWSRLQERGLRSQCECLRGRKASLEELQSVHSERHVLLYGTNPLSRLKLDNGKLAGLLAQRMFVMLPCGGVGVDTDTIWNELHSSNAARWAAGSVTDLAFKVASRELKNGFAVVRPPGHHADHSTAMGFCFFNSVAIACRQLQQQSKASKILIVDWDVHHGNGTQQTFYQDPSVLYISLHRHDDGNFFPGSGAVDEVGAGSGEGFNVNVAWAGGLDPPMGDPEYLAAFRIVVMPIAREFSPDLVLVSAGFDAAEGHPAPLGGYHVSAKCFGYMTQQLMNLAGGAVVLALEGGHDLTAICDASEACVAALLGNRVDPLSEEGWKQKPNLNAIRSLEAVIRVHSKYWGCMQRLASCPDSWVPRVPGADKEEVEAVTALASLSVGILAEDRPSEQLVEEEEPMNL

Histone deacetylase 1 = Histone deacetylase 1 (Homo sapiens, UniProt Q13547); experiment: Inhibition of full length recombinant human HDAC1 using fluorescent-labeled peptide as substrate by electrophoretic mobility shift assay
Histone deacetylase 3 = Histone deacetylase 3 (Homo sapiens, UniProt O15379); experiment: Inhibition of full length recombinant human HDAC3 using fluorescent-labeled peptide as substrate by electrophoretic mobility shift assay
Histone deacetylase 5 = Histone deacetylase 5 (Homo sapiens, UniProt Q9UQL6); experiment: Inhibition of full length recombinant human HDAC5 using fluorescent-labeled peptide as substrate by electrophoretic mobility shift assay
Histone deacetylase 9 = Histone deacetylase 9 (Homo sapiens, UniProt Q9UKV0); experiment: Inhibition of full length recombinant human HDAC9 using fluorescent-labeled peptide as substrate by electrophoretic mobility shift assay
Histone deacetylase 2 = Histone deacetylase 2 (Homo sapiens, UniProt Q92769); experiment: Inhibition of full length recombinant human HDAC2 using fluorescent-labeled peptide as substrate by electrophoretic mobility shift assay
Sequence of Histone deacetylase 2 (Q92769 whole entry): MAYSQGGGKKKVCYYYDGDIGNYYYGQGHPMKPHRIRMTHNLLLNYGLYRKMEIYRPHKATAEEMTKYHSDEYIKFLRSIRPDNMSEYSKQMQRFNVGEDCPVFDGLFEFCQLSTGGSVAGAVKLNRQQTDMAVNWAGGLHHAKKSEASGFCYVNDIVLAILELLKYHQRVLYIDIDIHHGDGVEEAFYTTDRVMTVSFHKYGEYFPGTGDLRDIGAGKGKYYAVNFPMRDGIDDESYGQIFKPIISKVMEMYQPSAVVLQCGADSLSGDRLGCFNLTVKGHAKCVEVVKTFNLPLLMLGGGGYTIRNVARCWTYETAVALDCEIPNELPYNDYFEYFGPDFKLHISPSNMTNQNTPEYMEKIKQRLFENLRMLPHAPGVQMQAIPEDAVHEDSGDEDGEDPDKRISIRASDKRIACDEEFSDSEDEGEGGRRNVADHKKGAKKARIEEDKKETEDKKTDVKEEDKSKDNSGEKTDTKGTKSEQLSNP

Sequence of Histone deacetylase 1 (Q13547 whole entry): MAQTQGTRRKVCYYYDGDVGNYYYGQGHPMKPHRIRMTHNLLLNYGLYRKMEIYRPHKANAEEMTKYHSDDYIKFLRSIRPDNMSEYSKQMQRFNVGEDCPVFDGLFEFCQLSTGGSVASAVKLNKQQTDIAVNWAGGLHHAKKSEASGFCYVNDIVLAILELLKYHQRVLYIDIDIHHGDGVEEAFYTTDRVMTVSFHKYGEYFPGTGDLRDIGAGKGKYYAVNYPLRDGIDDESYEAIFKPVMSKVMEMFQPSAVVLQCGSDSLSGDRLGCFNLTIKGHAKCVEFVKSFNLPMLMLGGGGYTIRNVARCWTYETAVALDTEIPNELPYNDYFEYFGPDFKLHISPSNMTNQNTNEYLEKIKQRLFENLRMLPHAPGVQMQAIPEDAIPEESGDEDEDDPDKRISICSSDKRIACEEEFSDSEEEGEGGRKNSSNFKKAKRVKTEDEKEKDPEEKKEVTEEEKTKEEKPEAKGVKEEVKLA
Sequence of Histone deacetylase 5 (Q9UQL6 whole entry): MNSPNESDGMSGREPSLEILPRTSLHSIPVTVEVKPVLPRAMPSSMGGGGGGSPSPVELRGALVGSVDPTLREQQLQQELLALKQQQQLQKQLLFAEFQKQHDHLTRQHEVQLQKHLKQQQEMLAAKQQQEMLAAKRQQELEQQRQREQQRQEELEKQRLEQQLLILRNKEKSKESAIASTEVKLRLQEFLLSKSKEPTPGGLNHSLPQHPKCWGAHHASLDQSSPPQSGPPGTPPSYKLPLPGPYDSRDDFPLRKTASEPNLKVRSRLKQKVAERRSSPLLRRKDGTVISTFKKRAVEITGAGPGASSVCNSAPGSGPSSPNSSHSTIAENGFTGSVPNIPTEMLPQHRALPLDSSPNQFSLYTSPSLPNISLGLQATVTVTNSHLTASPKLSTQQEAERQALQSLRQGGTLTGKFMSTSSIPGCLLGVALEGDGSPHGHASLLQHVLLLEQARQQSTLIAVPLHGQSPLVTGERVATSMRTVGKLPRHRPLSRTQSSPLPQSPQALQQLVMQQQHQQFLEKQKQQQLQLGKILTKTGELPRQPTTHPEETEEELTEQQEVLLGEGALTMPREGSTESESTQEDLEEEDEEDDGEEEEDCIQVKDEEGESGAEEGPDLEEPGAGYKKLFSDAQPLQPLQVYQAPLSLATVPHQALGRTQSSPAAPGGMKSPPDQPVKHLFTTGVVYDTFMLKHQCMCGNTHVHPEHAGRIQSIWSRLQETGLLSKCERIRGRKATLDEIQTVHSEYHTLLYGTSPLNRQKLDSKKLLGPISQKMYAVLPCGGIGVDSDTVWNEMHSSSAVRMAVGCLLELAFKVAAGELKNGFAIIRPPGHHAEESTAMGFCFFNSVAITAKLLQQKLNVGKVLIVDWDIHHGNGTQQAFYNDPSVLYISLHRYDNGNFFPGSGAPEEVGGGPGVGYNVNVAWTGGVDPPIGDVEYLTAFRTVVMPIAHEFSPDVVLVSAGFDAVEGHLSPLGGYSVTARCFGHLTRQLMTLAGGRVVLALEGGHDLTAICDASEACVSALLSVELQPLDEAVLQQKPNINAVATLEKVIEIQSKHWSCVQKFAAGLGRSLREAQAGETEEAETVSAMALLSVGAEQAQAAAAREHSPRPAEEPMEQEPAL
Sequence of Histone deacetylase 9 (Q9UKV0 whole entry): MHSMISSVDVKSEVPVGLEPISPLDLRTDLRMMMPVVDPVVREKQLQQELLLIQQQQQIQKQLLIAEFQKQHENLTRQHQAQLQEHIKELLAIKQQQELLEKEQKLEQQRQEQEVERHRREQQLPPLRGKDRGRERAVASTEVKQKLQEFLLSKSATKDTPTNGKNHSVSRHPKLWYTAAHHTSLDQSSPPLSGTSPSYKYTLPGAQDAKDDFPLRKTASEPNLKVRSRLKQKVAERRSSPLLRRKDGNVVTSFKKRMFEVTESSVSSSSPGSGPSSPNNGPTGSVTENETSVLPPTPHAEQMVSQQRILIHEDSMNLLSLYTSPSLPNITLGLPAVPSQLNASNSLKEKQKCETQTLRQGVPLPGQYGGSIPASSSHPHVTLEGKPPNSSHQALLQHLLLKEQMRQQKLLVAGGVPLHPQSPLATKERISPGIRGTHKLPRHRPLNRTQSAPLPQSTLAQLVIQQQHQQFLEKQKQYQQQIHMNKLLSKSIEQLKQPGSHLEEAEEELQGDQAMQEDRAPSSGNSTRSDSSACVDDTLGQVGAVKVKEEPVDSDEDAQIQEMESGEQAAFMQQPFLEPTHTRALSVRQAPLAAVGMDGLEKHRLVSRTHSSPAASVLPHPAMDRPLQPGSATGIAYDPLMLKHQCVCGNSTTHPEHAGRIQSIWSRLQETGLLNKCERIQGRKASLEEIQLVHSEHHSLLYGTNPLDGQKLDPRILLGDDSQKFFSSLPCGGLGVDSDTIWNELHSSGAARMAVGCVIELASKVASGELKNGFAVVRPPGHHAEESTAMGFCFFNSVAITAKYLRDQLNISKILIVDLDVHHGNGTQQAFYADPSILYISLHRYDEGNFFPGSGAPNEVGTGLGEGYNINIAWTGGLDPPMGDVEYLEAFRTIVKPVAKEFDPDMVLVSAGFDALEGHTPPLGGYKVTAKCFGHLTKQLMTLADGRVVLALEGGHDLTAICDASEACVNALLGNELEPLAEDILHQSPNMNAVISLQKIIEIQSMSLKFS
Sequence of Histone deacetylase 3 (O15379 whole entry): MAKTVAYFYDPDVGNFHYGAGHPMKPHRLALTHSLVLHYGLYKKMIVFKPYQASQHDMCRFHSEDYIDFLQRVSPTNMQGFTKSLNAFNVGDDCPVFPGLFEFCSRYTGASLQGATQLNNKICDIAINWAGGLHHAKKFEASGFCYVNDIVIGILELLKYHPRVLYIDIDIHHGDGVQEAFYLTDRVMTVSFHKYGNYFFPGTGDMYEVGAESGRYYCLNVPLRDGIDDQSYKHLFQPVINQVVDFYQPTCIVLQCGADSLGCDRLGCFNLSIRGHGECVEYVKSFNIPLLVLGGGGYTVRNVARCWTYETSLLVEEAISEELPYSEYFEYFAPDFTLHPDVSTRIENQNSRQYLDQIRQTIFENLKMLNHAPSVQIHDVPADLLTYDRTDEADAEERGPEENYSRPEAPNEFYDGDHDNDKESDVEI

Row | Structure (SMILES) | IC50 (Histone deacetylase 11 [1]) [nM] | microsomal CLint [2] [µL/min/mg] | IC50 [5] [nM] | solubility kinetic [13] [µM] | Papp [15] [×10⁻⁶ cm/s] | also measured
1 | O=C(NO)c1cccc2c1CN(c1nc3ccccc3s1)C2 | 35 | 323 |  |  |  | 
2 | O=C(NO)c1ccc2c(c1)CN(c1nc3ccccc3[nH]1)CC2 | 2100 |  | 4 |  |  | clearance [3]: 42 mL/min/kg; half-life [4]: 9.4 h; C0 [6]: 3.5 µM; AUC(0-t) [7]: 1 µM·h; Vd [8]: 18 L/kg
3 | O=C(NO)c1cccc2c1CN(c1nc3ccccc3[nH]1)C2 | 170 | 17 | > 10000 |  |  | half-life [9]: 10.2 h; bioavailability [10]: 81%; Cmax [11]: 4.2 µM; AUC(0-t) [12]: 3.8 µM·h
4 | O=C(NO)c1cccc2c1CN(c1nc3ccc(C(F)(F)F)cc3[nH]1)C2 | 2 | 140 |  |  |  | 
5 | O=C(NO)c1cccc2c1CCN(c1nc3ccccc3[nH]1)CC2 | 30 | 161 | 2800 |  |  | 
6 | O=C(NO)c1cccc2c1CN(c1ccc3ccccc3n1)C2 | 26 | 92 |  |  |  | 
7 | CC1(C)c2cccc(C(=O)NO)c2CN1c1ccc(C(F)(F)F)cn1 | 6 | 28 |  | 8 (≈ 2.81 µg/mL) | 12 | IC50 (Histone deacetylase 11 [14]): 130 nM
8 | CC1(C)c2cccc(C(=O)NO)c2CN1c1cnc(C(F)(F)F)cn1 |  | 22 | > 10000 | 31 (≈ 10.9 µg/mL) | 13 | IC50 [16]: > 10000 nM; IC50 (Histone deacetylase 7): > 10000 nM; IC50 (Histone deacetylase 1): > 10000 nM; IC50 (Histone deacetylase 3): > 10000 nM; IC50 (Histone deacetylase 5): > 10000 nM; IC50 (Histone deacetylase 9): > 10000 nM; IC50 (Histone deacetylase 2): > 10000 nM
9 | CC1(C)c2cccc(C(=O)NO)c2CN1c1cnc(C(F)(F)F)nc1 | 27 | 7 |  | 82 (≈ 28.9 µg/mL) |  | IC50 (Histone deacetylase 11 [14]): 270 nM
10 | O=C(NO)c1cccc2c1CCN(c1nc3ccccc3[nH]1)C2 | 1200 | < 7 | > 10000 |  |  | 
11 | O=C(NO)c1ccc2c(c1)CCN(c1nc3ccccc3[nH]1)C2 | > 10000 |  | 2 |  |  | 
12 | CC1(C)c2cccc(C(=O)NO)c2CN1c1nc2ncccc2o1 | 2 | 7 |  | 78 (≈ 25.3 µg/mL) | 0.7 | IC50 (Histone deacetylase 11 [14]): 20 nM
13 | O=C(NO)c1cccc2c1CN(c1nc3ccccc3o1)C2 | 7 | 313 |  |  |  | 
14 | Cc1nc(N2Cc3cccc(C(=O)NO)c3C2)[nH]c1C | 2300 | 88 |  |  |  | 
15 | O=C(NO)c1cccc2c1CN(C1=NC3CCCCC3N1)C2 (stereo unspecified) | 300 | 317 |  |  |  | 
16 | CC1(C)c2cccc(C(=O)NO)c2CN1c1nc2ccc(C(F)(F)F)cc2[nH]1 | 2 | 12 |  | 51 (≈ 19.9 µg/mL) | 0.1 | 
17 | O=C(NO)c1cccc2c1CN(c1ccc(C(F)(F)F)cn1)C2 | 7 | 81 |  |  |  | 
18 | O=C(NO)c1cccc2c1CN(c1nc3ccccc3[nH]1)CC2 | 4600 |  | 82 |  |  | 
19 | CC1(C)c2cccc(C(=O)NO)c2CN1c1ccc(C(F)(F)F)nc1 | 3 | 12 |  | 51 (≈ 17.9 µg/mL) | 8 | IC50 (Histone deacetylase 11 [14]): 12 nM
20 | CC1(C)c2cccc(C(=O)NO)c2CN1c1ncc(C(F)(F)F)cn1 | 5 | 21 |  | 32 (≈ 11.3 µg/mL) | 18 | IC50 (Histone deacetylase 11 [14]): 85 nM
21 | CC1(C)c2cccc(C(=O)NO)c2CN1c1nc2cc(C(F)(F)F)ccc2o1 | 1 | 10 |  | 4 (≈ 1.57 µg/mL) | 7 | 
